ChEMBL document CHEMBL4477261, “Design, synthesis and evaluation of the multidrug resistance-reversing activity of pyridine acid esters of podophyllotoxin in human leukemia cells” (Bioorg Med Chem Lett, 2016)
Active and inactive are the calls of the source. The rule behind the calls is not given here.

Legend:
[1] = test system: K562/Adr; experiment: Antiproliferative activity against human K562/ADR cells after 72 hrs by CCK8 assay; assay type: functional, cell-based
[2] = test system: K562; experiment: Resistance factor, ratio of IC50 for human K562/ADR cells to IC50 for human K562 cells; assay type: functional
[3] = test system: K562; experiment: Antiproliferative activity against human K562 cells after 72 hrs by CCK8 assay; assay type: functional, cell-based; settings: K562, 72 h
[4] = biological target: T1, Mitogen-activated protein kinase; ERK1/ERK2 (Homo sapiens) (UniProt P27361+P28482); experiment: Activation of ERK1/2 signalling in human K562/ADR cells assessed as suppression of CyclinB1 protein expression at 0.05 uM after 48 hrs by Western blot analysis relative to control; assay type: cell-based
[5] = test system: K562/Adr; experiment: Cell cycle arrest in human K562/ADR cells assessed as accumulation in S phase at 0.05 uM after 48 hrs by propidium iodide staining based flow cytometry (reference value: 43.39 +/- 0.69%); assay type: functional
[6] = biological target: T1, Mitogen-activated protein kinase; ERK1/ERK2 (Homo sapiens); experiment: Activation of ERK1/2 signalling in human K562/ADR cells assessed as suppression of P-gp expression at 0.05 uM after 48 hrs by Western blot analysis relative to control; assay type: cell-based
[7] = test system: K562/Adr; experiment: Effect on total ERK1/2 protein expression level in human K562/ADR cells at 0.05 uM after 48 hrs by Western blot analysis relative to control; assay type: ADME, cell-based
[8] = biological target: T1, Mitogen-activated protein kinase; ERK1/ERK2 (Homo sapiens); experiment: Activation of ERK1/2 signalling in human K562/ADR cells assessed as increase in cleaved caspase-3 expression at 0.1 uM after 48 hrs by Western blot analysis relative to control; assay type: cell-based
[9] = biological target: T1, Mitogen-activated protein kinase; ERK1/ERK2 (Homo sapiens); experiment: Activation of ERK1/2 signalling in human K562/ADR cells assessed as suppression of CDK1 protein expression at 0.05 uM after 48 hrs by Western blot analysis relative to control; assay type: cell-based
[10] = biological target: T1, Mitogen-activated protein kinase; ERK1/ERK2 (Homo sapiens); experiment: Induction of ERK1/2 phosphorylation in human K562/ADR cells at 0.1 uM after 48 hrs by Western blot analysis relative to control; assay type: cell-based
[11] = biological target: T1, Mitogen-activated protein kinase; ERK1/ERK2 (Homo sapiens); experiment: Activation of ERK1/2 signalling in human K562/ADR cells assessed as increase in cleaved caspase-9 expression at 0.1 uM after 48 hrs in presence of ERK1/2 inhibitor U0126 by Western blot analysis relative to control; assay type: cell-based
[12] = test system: K562/Adr; experiment: Induction of apoptosis in human K562/ADR cells assessed as nuclear fragmentation at 0.05 to 0.1 uM after 48 hrs by Hoechst 33342 staining based fluorescent microscopic analysis; assay type: functional, cell-based
[13] = test system: K562/Adr; experiment: Induction of apoptosis in human K562/ADR cells assessed as late apoptotic cells at 0.1 uM after 48 hrs by Annexin V-APC/7-AAD staining based flow cytometry (reference value: 3.89%); assay type: functional
[14] = biological target: T1, Mitogen-activated protein kinase; ERK1/ERK2 (Homo sapiens); experiment: Induction of ERK1/2 phosphorylation in human K562/ADR cells at 0.05 uM after 48 hrs by Western blot analysis relative to control; assay type: cell-based
[15] = biological target: T1, Mitogen-activated protein kinase; ERK1/ERK2 (Homo sapiens); experiment: Activation of ERK1/2 signalling in human K562/ADR cells assessed as suppression of P-gp expression at 0.1 uM after 48 hrs by Western blot analysis relative to control; assay type: cell-based
[16] = test system: K562/Adr; experiment: Effect on total ERK1/2 protein expression level in human K562/ADR cells at 0.1 uM after 48 hrs in presence of ERK1/2 inhibitor U0126 by Western blot analysis relative to control; assay type: ADME, cell-based
[17] = test system: K562; experiment: Potency index, ratio of etoposide IC50 to compound IC50 for human K562 cells; assay type: functional
[18] = biological target: T1, Mitogen-activated protein kinase; ERK1/ERK2 (Homo sapiens); experiment: Activation of ERK1/2 signalling in human K562/ADR cells assessed as suppression of CDK1 protein expression at 0.1 uM after 48 hrs by Western blot analysis relative to control; assay type: cell-based
[19] = biological target: T1, Mitogen-activated protein kinase; ERK1/ERK2 (Homo sapiens); experiment: Activation of ERK1/2 signalling in human K562/ADR cells assessed as increase in cleaved caspase-9 expression at 0.1 uM after 48 hrs by Western blot analysis relative to control; assay type: cell-based
[20] = test system: K562/Adr; experiment: Cell cycle arrest in human K562/ADR cells assessed as accumulation in S phase at 0.1 uM after 48 hrs by propidium iodide staining based flow cytometry (reference value: 43.39 +/- 0.69%); assay type: functional
[21] = biological target: T1, Mitogen-activated protein kinase; ERK1/ERK2 (Homo sapiens); experiment: Activation of ERK1/2 signalling in human K562/ADR cells assessed as increase in cleaved caspase-3 expression at 0.1 uM after 48 hrs in presence of ERK1/2 inhibitor U0126 by Western blot analysis relative to control; assay type: cell-based
[22] = biological target: T1, Mitogen-activated protein kinase; ERK1/ERK2 (Homo sapiens); experiment: Activation of ERK1/2 signalling in human K562/ADR cells assessed as increase in cleaved caspase-3 expression at 0.05 uM after 48 hrs by Western blot analysis relative to control; assay type: cell-based
[23] = test system: K562/Adr; experiment: Induction of apoptosis in human K562/ADR cells assessed as early apoptotic cells at 0.05 uM after 48 hrs by Annexin V-APC/7-AAD staining based flow cytometry (reference value: 1.99%); assay type: functional
[24] = biological target: T1, Mitogen-activated protein kinase; ERK1/ERK2 (Homo sapiens); experiment: Induction of ERK1/2 phosphorylation in human K562/ADR cells at 0.1 uM after 48 hrs in presence of ERK1/2 inhibitor U0126 by Western blot analysis relative to control; assay type: cell-based
[25] = test system: K562/Adr; experiment: Induction of apoptosis in human K562/ADR cells assessed as early apoptotic cells at 0.1 uM after 48 hrs by Annexin V-APC/7-AAD staining based flow cytometry (reference value: 1.99%); assay type: functional
[26] = test system: K562/Adr; experiment: Potency index, ratio of podophyllotoxin IC50 to compound IC50 for human K562/ADR cells; assay type: functional
[27] = test system: K562/Adr; experiment: Induction of apoptosis in human K562/ADR cells assessed as necrotic cells at 0.1 uM after 48 hrs by Annexin V-APC/7-AAD staining based flow cytometry (reference value: 2.47%); assay type: functional
[28] = biological target: T1, Mitogen-activated protein kinase; ERK1/ERK2 (Homo sapiens); experiment: Activation of ERK1/2 signalling in human K562/ADR cells assessed as increase in cleaved caspase-9 expression at 0.05 uM after 48 hrs by Western blot analysis relative to control; assay type: cell-based
[29] = biological target: T1, Mitogen-activated protein kinase; ERK1/ERK2 (Homo sapiens); experiment: Activation of ERK1/2 signalling in human K562/ADR cells assessed as suppression of P-gp expression at 0.1 uM after 48 hrs in presence of ERK1/2 inhibitor U0126 by Western blot analysis relative to control; assay type: cell-based
[30] = test system: K562/Adr; experiment: Induction of apoptosis in human K562/ADR cells assessed as necrotic cells at 0.05 uM after 48 hrs by Annexin V-APC/7-AAD staining based flow cytometry (reference value: 2.47%); assay type: functional
[31] = test system: K562/Adr; experiment: Effect on total ERK1/2 protein expression level in human K562/ADR cells at 0.1 uM after 48 hrs by Western blot analysis relative to control; assay type: ADME, cell-based
[32] = test system: K562/Adr; experiment: Induction of apoptosis in human K562/ADR cells assessed as late apoptotic cells at 0.05 uM after 48 hrs by Annexin V-APC/7-AAD staining based flow cytometry (reference value: 3.89%); assay type: functional
[33] = biological target: T1, Mitogen-activated protein kinase; ERK1/ERK2 (Homo sapiens); experiment: Activation of ERK1/2 signalling in human K562/ADR cells assessed as increase in cleaved caspase-8 expression at 0.1 uM after 48 hrs in presence of ERK1/2 inhibitor U0126 by Western blot analysis relative to control; assay type: cell-based
[34] = test system: K562/Adr; experiment: Induction of apoptosis in human K562/ADR cells assessed as chromatin condensation at 0.05 to 0.1 uM after 48 hrs by Hoechst 33342 staining based fluorescent microscopic analysis; assay type: functional, cell-based
[35] = test system: K562/Adr; experiment: Potency index, ratio of etoposide IC50 to compound IC50 for human K562/ADR cells; assay type: functional
[36] = biological target: T1, Mitogen-activated protein kinase; ERK1/ERK2 (Homo sapiens); experiment: Activation of ERK1/2 signalling in human K562/ADR cells assessed as increase in cleaved caspase-8 expression at 0.1 uM after 48 hrs by Western blot analysis relative to control; assay type: cell-based
[37] = biological target: T1, Mitogen-activated protein kinase; ERK1/ERK2 (Homo sapiens); experiment: Activation of ERK1/2 signalling in human K562/ADR cells assessed as suppression of CyclinB1 protein expression at 0.1 uM after 48 hrs by Western blot analysis relative to control; assay type: cell-based
[38] = biological target: T1, Mitogen-activated protein kinase; ERK1/ERK2 (Homo sapiens); experiment: Activation of ERK1/2 signalling in human K562/ADR cells assessed as suppression of CyclinB1 protein expression at 0.1 uM after 48 hrs in presence of ERK1/2 inhibitor U0126 by Western blot analysis relative to control; assay type: cell-based
[39] = test system: K562; experiment: Potency index, ratio of adriamycin IC50 to compound IC50 for human K562 cells; assay type: functional
[40] = test system: K562/Adr; experiment: Potency index, ratio of adriamycin IC50 to compound IC50 for human K562/ADR cells; assay type: functional
[41] = test system: K562/Adr; experiment: Induction of apoptosis in human K562/ADR cells assessed as live cells at 0.1 uM after 48 hrs by Annexin V-APC/7-AAD staining based flow cytometry (reference value: 91.65%); assay type: functional
[42] = biological target: T1, Mitogen-activated protein kinase; ERK1/ERK2 (Homo sapiens); experiment: Activation of ERK1/2 signalling in human K562/ADR cells assessed as increase in cleaved caspase-8 expression at 0.05 uM after 48 hrs by Western blot analysis relative to control; assay type: cell-based
[43] = biological target: T1, Mitogen-activated protein kinase; ERK1/ERK2 (Homo sapiens); experiment: Activation of ERK1/2 signalling in human K562/ADR cells assessed as suppression of CDK1 protein expression at 0.1 uM after 48 hrs in presence of ERK1/2 inhibitor U0126 by Western blot analysis relative to control; assay type: cell-based
[44] = test system: K562/Adr; experiment: Induction of apoptosis in human K562/ADR cells assessed as live cells at 0.05 uM after 48 hrs by Annexin V-APC/7-AAD staining based flow cytometry (reference value: 91.65%); assay type: functional

T1 sequence (P27361 whole entry, looked up): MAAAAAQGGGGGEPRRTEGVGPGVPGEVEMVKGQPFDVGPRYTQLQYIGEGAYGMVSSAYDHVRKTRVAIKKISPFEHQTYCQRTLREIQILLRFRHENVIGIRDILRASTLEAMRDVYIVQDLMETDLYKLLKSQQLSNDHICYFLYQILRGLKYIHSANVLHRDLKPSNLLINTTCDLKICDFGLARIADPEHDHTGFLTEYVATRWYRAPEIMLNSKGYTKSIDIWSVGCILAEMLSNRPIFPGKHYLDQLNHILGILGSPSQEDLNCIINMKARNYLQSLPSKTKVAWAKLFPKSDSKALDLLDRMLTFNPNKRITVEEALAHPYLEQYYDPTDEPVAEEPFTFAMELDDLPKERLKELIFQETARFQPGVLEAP
T1 sequence (P28482 whole entry, looked up): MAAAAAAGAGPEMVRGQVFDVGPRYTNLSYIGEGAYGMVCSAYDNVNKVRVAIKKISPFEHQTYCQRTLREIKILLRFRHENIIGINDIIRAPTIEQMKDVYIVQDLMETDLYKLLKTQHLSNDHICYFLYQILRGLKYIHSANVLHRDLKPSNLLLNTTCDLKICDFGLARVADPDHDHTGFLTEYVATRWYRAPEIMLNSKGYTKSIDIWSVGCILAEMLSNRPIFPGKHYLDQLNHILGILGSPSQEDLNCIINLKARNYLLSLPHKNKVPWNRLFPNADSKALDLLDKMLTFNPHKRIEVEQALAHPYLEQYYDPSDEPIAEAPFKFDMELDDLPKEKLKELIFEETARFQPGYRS

COc1cc([C@@H]2c3cc4c(cc3[C@H](OC(=O)c3cccnc3)[C@H]3COC(=O)[C@H]23)OCO4)cc(OC)c1OC [4-O-PODOPHYLLOTOXINYL-NICOTINATE]
IC50 [1]: 137 nM
Ratio IC50 [2]: 4.151
IC50 [3]: 33 nM

COc1cc([C@@H]2c3cc4c(cc3[C@H](OC(=O)c3ccnc(Br)c3)[C@H]3COC(=O)[C@H]23)OCO4)cc(OC)c1OC
IC50 [1]: 58 nM
Ratio IC50 [2]: 2.521
IC50 [3]: 23 nM

COc1cc([C@@H]2c3cc4c(cc3[C@H](OC(=O)c3ccnc(Cl)c3)[C@H]3COC(=O)[C@H]23)OCO4)cc(OC)c1OC
IC50 [1]: 57 nM
Ratio IC50 [2]: 2.85
IC50 [3]: 20 nM

COc1cc([C@@H]2c3cc4c(cc3[C@H](OC(=O)c3cc(Cl)ccn3)[C@H]3COC(=O)[C@H]23)OCO4)cc(OC)c1OC
IC50 [1]: 52 nM
Ratio IC50 [2]: 3.25
IC50 [3]: 16 nM

COc1ccc(C(=O)O[C@H]2c3cc4c(cc3[C@@H](c3cc(OC)c(OC)c(OC)c3)[C@H]3C(=O)OC[C@@H]32)OCO4)cn1
IC50 [1]: 123 nM
Ratio IC50 [2]: 2.12
IC50 [3]: 58 nM

COc1cc([C@@H]2c3cc4c(cc3[C@H](OC(=O)c3cccc(Br)n3)[C@H]3COC(=O)[C@H]23)OCO4)cc(OC)c1OC
fold change (FC) [4]: 0.25
Activity [5]: 53.74%
fold change (FC) [6]: 0.26
fold change (FC) [7]: 0.94
fold change (FC) [8]: 0.64
fold change (FC) [9]: 0.81
fold change (FC) [10]: 0.71
fold change (FC) [11]: 0.59
Activity [12]: Active
Activity [13]: 44.02%
fold change (FC) [14]: 0.32
fold change (FC) [15]: 0.1
fold change (FC) [16]: 0.65
IC50 [1]: 46 nM
Ratio IC50 [17]: 16.52
fold change (FC) [18]: 0.46
fold change (FC) [19]: 0.75
Activity [20]: 64.17%
fold change (FC) [21]: 0.52
fold change (FC) [22]: 0.47
Ratio IC50 [2]: 1.84
Activity [23]: 7.42%
fold change (FC) [24]: 0.07
Activity [25]: 9.15%
Ratio IC50 [26]: 0.54
Activity [27]: 5.82%
fold change (FC) [28]: 0.49
fold change (FC) [29]: 0.31
Activity [30]: 6.37%
fold change (FC) [31]: 0.89
Activity [32]: 18.84%
fold change (FC) [33]: 0.4
Activity [34]: Active
Ratio IC50 [35]: 44.02
fold change (FC) [36]: 0.57
fold change (FC) [37]: 0.15
fold change (FC) [38]: 0.2
Ratio IC50 [39]: 8.8
Ratio IC50 [40]: 408.23
Activity [41]: 41.01%
IC50 [3]: 25 nM
fold change (FC) [42]: 0.38
fold change (FC) [43]: 0.71
Activity [44]: 67.37%
